US20180318383A1, “PEPTIDE HAVING NEURONAL LOSS PREVENTION AND REGENERATION EFFECTS, AND COMPOSITION CONTAINING SAME” (GEMVAX & KAEL CO., LTD., priority 2015, published 2018)

Assays:
NeuN = NeuN expression in 3XTg-AD mice (western blotting); format: in vivo; conditions: hippocampus and whole brain; s.c. three times a week for two months from age 12 months; vs control and Donepezil, same amount
Description: (§1) To test the efficacy of PEP1 on AD, AD transgenic mice (3XTg-AD) were purchased from Jackson Laboratory. Genetic characteristics of the transgenic mice are as follows: B6; 129-Psen1tm1Mpm Tg(APPSwe, tauP301L)1Lfa/Mmjax. […] One week after mice were confirmed as pregnant, new mice were delivered and weaned for 3 weeks. Two weeks later, mature mice were obtained.
(§2) During the preliminary breeding and the entire period of the experiment, a temperature was maintained at 23±2° C. and a relative humidity was maintained at 60±10%, and then the mice were raised under a 12-hour dark/light cycle. Experimental animals were divided into five groups, and each group included 10 animals. The divided experimental groups are as follows. […]
(§3) The PEP1, physiological saline, donepezil and scramble peptide were subcutaneously injected at each concentration three times a week for two months from the age of 12 months, and then two months after the injection, cognitive/memory behavior tests (passive avoidance test and Y maze test) were performed to examine a degree of improvement in cognitive function and memory function. After the brain was extracted to separate the hippocampus, the amounts of amyloid beta in the hippocampus and the whole brain, and the amounts of an amyloid beta oligomer and NFT generated by tau hyperphosphorylation were determined by western blotting and immunostaining. […]

Tuj1 = Tuj1 expression in 3XTg-AD mice (western blotting, immunostaining); format: in vivo; conditions: hippocampus and whole brain; s.c. three times a week for two months; vs control and Donepezil, same amount
Description: as §1, §2, §3

Tau = experiment: NFT generation (Tau expression) in 3XTg-AD mice (western blotting, immunostaining); format: in vivo; conditions: hippocampus and whole brain; vs control and Donepezil
Description: as §1, §2, §3

neuronal apoptosis = experiment: Oxygen-glucose deprivation (OGD), in vitro model of ischemic stroke; format: cell-based

Sequence: EARPALLTSRLRFIPK (homo sapiens) [PEP1, hTERT-derived peptide consisting of 16 amino acids, telomerase location [611-626]]
- NeuN (NeuN): increased
- Tuj1 (Tuj1): increased
- expression level of Tau (Tau): decreased
- neuronal apoptosis caused by oxygen-glucose deprivation (OGD) (neuronal apoptosis): inhibiting neuronal apoptosis
